Assay results: ChEMBL document CHEMBL5528088, “Design and Synthesis of Cyclolipopeptide Mimics of Dysoxylactam A and Evaluation of the Reversing Potencies against P-Glycoprotein-Mediated Multidrug Resistance” (J Med Chem, 2024)
Structures can show the parent of a compound that is named as a salt. Active and inactive are the calls of the source. The calls are words filed in the database; no cut-off is given here.

Tests used:
KBv200 [1] = assay: Inhibition of cell proliferation in human KBv200 cells assessed as inhibition of VNR at 10 uM incubated for 72 hrs in presence of VNR by SRB assay relative to control; assay type: functional
KBv200 [2] = assay: Reversal fold, ratio of VNR IC50 to VNR IC50 in presence of test compound for human KBv200 cells incubated for 72 hrs by SRB assay; assay type: functional
KBv200 [3] = assay: Cytotoxicity against human KBv200 cells at 10 uM incubated for 72 hrs by SRB assay relative to control; assay type: functional
KBv200 [4] = assay: Reversal effect on P-gp-mediated multidrug resistance in human KBv200 cells assessed as inhibition of cell proliferation incubated for 72 hrs by SRB assay; assay type: functional, cell-based; conditions: KBv200, 72 h
NCI/ADR-RES = assay: Reversal effect on P-gp-mediated multidrug resistance in human NCI/ADR-RES cells assessed as inhibition of cell proliferation incubated for 72 hrs by SRB assay; assay type: functional, cell-based
KBv200 [5] = assay: Inhibition of ADR uptake in human KBv200 cells at 10 uM incubated for 10 mins by flow cytometry; assay type: functional, cell-based
KBv200 [6] = assay: Inhibition of calcein AM uptake in human KBv200 cells at 10 uM incubated for 10 mins by flow cytometry; assay type: functional, cell-based
KBv200 [7] = assay: Inhibition of Rho-123 uptake in human KBv200 cells at 10 uM incubated for 10 mins by flow cytometry; assay type: functional, cell-based

Row | SMILES | inhibition at 10 µM (KBv200 [1]) [%] | Ratio IC50 (KBv200 [2]) | Activity (KBv200 [3]) [%] | also measured
1 | CC(C)[C@@H]1NC(=O)CCCCCCCC(=O)NCC(C)(C)COC1=O | 38.8 | – | – | –
2 | CC(C)[C@@H]1NC(=O)CCCCCCCC(=O)N[C@@H](C(C)(C)C)COC1=O | 53.6 | – | – | –
3 | CC(C)[C@@H]1NC(=O)CCCCCCCC(=O)N[C@H](c2ccccc2)CCOC1=O | 30.1 | – | – | –
4 | CC[C@H](C)[C@@H]1NC(=O)[C@H](C(C)C)NC(=O)CCCCCCCC(=O)Nc2ccccc2COC1=O | 90.9 | 7.3 | 19.8 | –
5 | CC(C)[C@@H]1NC(=O)CCCCCCCC(=O)NCCCCCOC1=O | 26.6 | – | – | –
6 | CC(C)[C@H]1NC(=O)CCCCCCCCCCCC(=O)N[C@H](Cc2ccccc2)COC1=O | 91.5 | 114.5 | 15.8 | –
7 | CC[C@H](C)[C@@H]1NC(=O)[C@H](C(C)C)NC(=O)CCCCCCCC(=O)Nc2cccc(c2)COC1=O | 92.3 | 26.8 | 31 | –
8 | CC(C)[C@@H]1NC(=O)CCCCCCCC(=O)N[C@@H](Cc2ccccc2)COC1=O | 80.6 | 26.1 | 0 | –
9 | CC(C)[C@@H]1NC(=O)CCCCCCCC(=O)N[C@@H](c2ccccc2)COC1=O | 50.2 | – | – | –
10 | CC[C@H](C)[C@@H]1NC(=O)[C@H](C(C)C)NC(=O)CCCCCCC(=O)Nc2cccc(c2)COC1=O | 83.5 | 10.2 | 4.4 | –
11 | CC[C@H](C)[C@@H]1NC(=O)[C@H](C(C)C)NC(=O)CCCCCCCC(=O)NCCOC1=O | 51.1 | – | – | –
12 | CC(C)[C@@H]1NC(=O)CCCCCCCC(=O)Nc2cccc(c2)OC1=O | 12.8 | – | – | –
13 | CC(C)[C@@H]1NC(=O)CCCCCCCC(=O)N[C@@H](C(C)C)COC1=O | 34.4 | – | – | –
14 | CC(C)[C@@H]1NC(=O)CCCCCCCC(=O)N[C@H]2[C@@H]3C[C@@H]4C[C@H]2C[C@@](C4)(C3)OC1=O | 14.1 | – | – | –
15 | CC(C)[C@@H]1NC(=O)CCCCCCCC(=O)N[C@@H](Cc2ccccc2)COC(=O)[C@H](Cc2ccccc2)NC1=O | 88.9 | 2.7 | 0 | –
16 | CC(C)[C@@H]1NC(=O)CCCCCCCC(=O)NCCCOC1=O | 15 | – | – | –
17 | CC(C)[C@@H]1NC(=O)CCCCCCCCCCC(=O)N[C@@H](Cc2ccccc2)COC1=O | 97.6 | 85 | 5 | –
18 | CC(C)[C@@H]1NC(=O)CCCCCCCCCCCC(=O)N[C@H](Cc2ccccc2)COC1=O | 75.4 | 51.3 | 17 | –
19 | CC(C)[C@@H]1NC(=O)CCCCCCCC(=O)NCCCCOC1=O | 15.7 | – | – | –
20 | CC(C)C[C@H]1COC(=O)[C@H](C(C)C)NC(=O)CCCCCCCC(=O)N1 | 48.9 | – | – | –
21 | CC(C)[C@@H]1NC(=O)CCCCCCCC(=O)NC(C)(C)CCOC1=O | 23.1 | – | – | –
22 | CC(C)[C@@H]1NC(=O)CCCCCC(=O)N[C@@H](Cc2ccccc2)COC1=O | 42.6 | – | – | –

Row | SMILES | inhibition at 10 µM (KBv200 [1]) [%] | Ratio IC50 (KBv200 [2]) | Activity (KBv200 [3]) [%] | also measured
23 | CC[C@H](C)[C@@H]1NC(=O)[C@H](C(C)C)NC(=O)CCCCCCC(=O)N[C@@H](Cc2ccccc2)COC1=O | 28.7 | – | – | –
24 | CC[C@H](C)[C@H]1COC(=O)[C@H](C(C)C)NC(=O)CCCCCCCC(=O)N1 | 51.2 | – | – | –
25 | CC(C)[C@@H]1NC(=O)CCCCCCCC(=O)Nc2ccccc2OC1=O | 14.5 | – | – | –
26 | CC(C)[C@@H]1NC(=O)CCCCCCCC(=O)N[C@@H](Cc2ccccc2)COC(=O)CCCNC1=O | 26.8 | – | – | –
27 | CC[C@H](C)[C@@H]1NC(=O)[C@H](C(C)C)NC(=O)CCCCCCCC(=O)NCCCOC1=O | 44.8 | – | – | –
28 | CC[C@H](C)[C@@H]1NC(=O)[C@H](C(C)C)NC(=O)CCCCCC(=O)Nc2cccc(c2)COC1=O | 14.5 | – | – | –
29 | CC(C)[C@@H]1NC(=O)CCCCCCCC(=O)NCCOC1=O | 9.5 | – | – | –
30 | CC(C)[C@@H]1NC(=O)CCCCCCCC(=O)NCCCCCCOC1=O | 21.1 | – | – | –
31 | CC[C@H](C)[C@@H]1NC(=O)[C@H](C(C)C)NC(=O)CCCCCCCC(=O)Nc2cc(F)cc(c2)COC1=O | 90.7 | 19.3 | 4.6 | –
32 | CSCC[C@H]1COC(=O)[C@H](C(C)C)NC(=O)CCCCCCCC(=O)N1 | 34 | – | – | –
33 | CC[C@H](C)[C@@H]1NC(=O)[C@H](C(C)C)NC(=O)CCCCCCCC(=O)NCCCCOC1=O | 54 | – | – | –
34 | CC(C)[C@@H]1NC(=O)CCCCCCCC(=O)N[C@@H](Cc2ccccc2)COC(=O)Cc2cccc(c2)NC1=O | 81.6 | 6.5 | 0 | –
35 | CC(=O)O[C@H]1C(=O)[C@@]2(C)[C@H]([C@H](OC(=O)c3ccccc3)[C@]3(O)C[C@H](OC(=O)[C@H](O)[C@@H](NC(=O)c4ccccc4)c4ccccc4)C(C)=C1C3(C)C)[C@]1(OC(C)=O)CO[C@@H]1C[C@@H]2O [PACLITAXEL] | – | – | – | IC50 (KBv200 [4]): 238 nM
36 | CC[C@H](C)[C@@H]1NC(=O)[C@H](C(C)C)NC(=O)CCCCCCCCC(=O)N[C@@H](Cc2ccccc2)COC1=O | 89.7 | 22.2 | 8.6 | –
37 | CC(C)[C@@H]1NC(=O)CCCCCCCC(=O)N[C@@H](Cc2ccccc2)COC(=O)[C@H](C(C)C)NC1=O | 91.1 | 7.9 | 15.8 | –
38 | CC(C)[C@@H]1NC(=O)CCCCCCCCC(=O)N[C@@H](Cc2ccccc2)COC1=O | 85.4 | 31.7 | 2.2 | –
39 | CC[C@H](C)[C@@H]1NC(=O)[C@H](C(C)C)NC(=O)CCCCCC(=O)N[C@@H](Cc2ccccc2)COC1=O | 25.7 | – | – | –
40 | CC[C@H](C)[C@@H]1NC(=O)[C@H](C(C)C)NC(=O)CCCCCCCC(=O)N[C@@H](C)COC1=O | 49 | – | – | –
41 | CC(C)[C@@H]1NC(=O)CCCCCCCC(=O)Nc2ccccc2COC1=O | 29.7 | – | – | –
42 | CC[C@H](C)[C@@H]1NC(=O)[C@H](C(C)C)NC(=O)CCCCCCCC(=O)N[C@@H](Cc2ccccc2)COC1=O | 91.3 | 20.8 | 21.8 | –
43 | CC(C)[C@@H]1NC(=O)CCCCCCC(=O)N[C@@H](Cc2ccccc2)COC1=O | 9.3 | – | – | –
44 | CC(C)[C@@H]1NC(=O)CCCCCCCC(=O)N[C@@H](Cc2ccccc2)COC(=O)CNC1=O | 11 | – | – | –

Row | SMILES | inhibition at 10 µM (KBv200 [1]) [%] | Ratio IC50 (KBv200 [2]) | Activity (KBv200 [3]) [%] | also measured
45 | COc1cccc2c1C(=O)c1c(O)c3c(c(O)c1C2=O)C[C@@](O)(C(=O)CO)C[C@@H]3O[C@H]1C[C@H](N)[C@H](O)[C@H](C)O1 [DOXORUBICIN HYDROCHLORIDE] | – | – | – | IC50 (NCI/ADR-RES): 26000 nM; IC50 (KBv200 [4]): 373 nM
46 | CC(C)[C@@H]1NC(=O)CCCCCCCC(=O)Nc2cccc(c2)COC1=O | 13.1 | – | – | –
47 | CC(C)C1NC(=O)CCCCCCCC(=O)N[C@@]23C[C@H]4C[C@@H](C2)C[C@](C4)(C3)OC1=O (some centres undefined) | 42.9 | – | – | –
48 | CC[C@H](C)[C@@H]1NC(=O)[C@H](C(C)C)NC(=O)CCCCCCCC(=O)NCC(F)(F)COC1=O | 73.4 | 2.3 | 10.3 | –
49 | CC(C)[C@@H]1NC(=O)CCCCCCCCCC(=O)N[C@@H](Cc2ccccc2)COC1=O | 93.4 | 55.1 | 1.8 | –
50 | CC(C)[C@@H]1NC(=O)CCOCCOCCOCCC(=O)N[C@@H](Cc2ccccc2)COC1=O | 0.3 | – | – | –
51 | CC[C@H](C)[C@@H]1NC(=O)[C@H](C(C)C)NC(=O)CCCCCCCC(=O)N[C@@H]2CC[C@H](C2)OC1=O | 72.2 | 1.4 | 20.5 | –
52 | CC[C@H](C)[C@@H]1NC(=O)[C@H](C(C)C)NC(=O)CCCCCCCC(=O)NCc2cccc(c2)OC1=O | 6.4 | – | – | –
53 | CC(C)[C@@H]1NC(=O)CCCCCCCC(=O)N[C@@H](C)COC1=O | 20.7 | – | – | –
54 | CC(C)[C@H]1NC(=O)CCCCCCCCCCCC(=O)N[C@@H](Cc2ccccc2)COC1=O | 68.3 | 57.2 | 16.7 | –
55 | CC(C)[C@@H]1NC(=O)CCCCCCCC(=O)N[C@@H](Cc2ccccc2)COC(=O)Cc2ccc(cc2)NC1=O | 35.9 | – | – | –
56 | CCC[C@H]1COC(=O)[C@H](C(C)C)NC(=O)CCCCCCCC(=O)N1 | 46.3 | – | – | –
57 | CC(C)[C@@H]1NC(=O)CCCCCCCC(=O)N[C@@H](Cc2ccccc2)COC(=O)CCNC1=O | 12 | – | – | –
58 | CC(C)[C@@H]1NC(=O)CCCCCCCC(=O)N[C@@H](c2ccccc2)[C@@H](c2ccccc2)OC1=O | 14.1 | – | – | –
59 | CC[C@H](C)[C@@H]1NC(=O)[C@H](C(C)C)NC(=O)CCCCCCCCC(=O)Nc2cccc(c2)COC1=O | 77.6 | 7.3 | 10.9 | –
60 | CC(C)[C@@H]1NC(=O)CCCCCCCC(=O)N[C@@H](Cc2ccccc2)COC(=O)[C@H](C)NC1=O | 55.5 | – | – | –
61 | CC[C@H](C)[C@@H]1NC(=O)[C@H](C(C)C)NC(=O)CCCCCCCC(=O)N[C@@H](C(C)C)COC1=O | 63.6 | 1.9 | 18.6 | –
62 | COc1cc2c(cc1OC)CN(CCc1ccc(NC(=O)c3cc(OC)c(OC)cc3NC(=O)c3cnc4ccccc4c3)cc1)CC2 | – | – | – | inhibition (KBv200 [5]): Active; inhibition (KBv200 [6]): Active; inhibition (KBv200 [7]): Active
63 | CC(C)[C@@H]1NC(=O)CCCCCCCCCCCCC(=O)N[C@@H](Cc2ccccc2)COC1=O | 97.3 | 99.2 | 4.4 | –
64 | COc1ccc(CCN(C)CCCC(C#N)(c2ccc(OC)c(OC)c2)C(C)C)cc1OC (centres undefined) [VERAPAMIL] | 97.5 | 59.5 | 5 | inhibition (KBv200 [5]): inactive; inhibition (KBv200 [6]): inactive; inhibition (KBv200 [7]): Active
